The subject of data set [1] is zebrafish larvae. Kind of data set: phenotypic analysis of zebrafish larvae. Format: in vivo. How it is done:
(§1) The hypoxia-activated prodrugs were screened for their toxicity using 24-h post-fertilization zebrafish embryos as described earlier. The compounds were either dissolved in Embryonic medium (5.0 mM NaCl, 0.17 mM KCl, 0.33 mM CaCl2, 0.33 mM MgSO4, and 0.1% w/v Methylene Blue (Sigma-Aldrich, Darmstadt, Germany) or in dimethyl sulfoxide (DMSO) (Sigma-Aldrich, St. Louis, MO, USA) to prepare 100 mM stock solutions. Before the start of each experiment, the series of dilutions were made from the above stock in the embryonic medium.
(§2) The wild-type adult zebrafish (AB strains) were maintained at 28.5 °C in an incubator [35]. In each breeding tank, about embryos 3–5 pairs of male and female fish were set up overnight for collecting the embryos. The following morning, 1–2-h post-fertilization (hpf) embryos were collected in a sieve and rinsed with embryonic medium and kept the collected embryos in an incubator at 28.5 °C overnight. The toxicity evaluation studies of the compounds were performed using the fish that were 24-hpf. All the zebrafish experiments were performed at the zebrafish core facility, Tampere University, Finland, and according to the protocol used in our laboratory.
After exposure to the prodrugs, we evaluated the effects of these compound on the zebrafish larvae by analyzing the following eight phenotypic parameters: (1) mortality, (2) hatching (3) edema (4) swimming pattern, (5) yolk sack utilization, (6) heartbeat, (7) body shape, and (8) swim bladder development. The images of the developing larvae were taken using a Lumar V1.12 fluorescence microscope (Carl Zeiss MicroImaging GmbH, Göttingen, Germany) attached to a camera with a 1.5 lens (Carl Zeiss MicroImaging GmbH, Göttingen, Germany). The images were analyzed with AxioVision software versions 4.7 and 4.8 as described in our standard protocol for the assessment of the toxicity and safety of chemical compounds.

Data set [2] relates to HCT116 cells. Briefly: alamarBlue cell viability assay, HCT116. It is filed as cell-based, human. The conditions noted are these: 2 h exposure, 72 h regrowth. How it is done: (§3) Human colorectal HCT116 and HT29 carcinoma cells were cultured in Dulbecco’s Modified Eagle Medium (DMEM, Lonza) supplemented with 10% fetal bovine serum and 1% PenStrep. Cells were exposed to anoxic conditions for 24 h in a hypoxic chamber (MACS VA500 microaerophilic workstation, Don Whitley Scientific, Bingley, UK) with an atmosphere consisting of ≤0.02% O2, 5% CO2 and residual N2. Normoxic cells were grown in regular incubators with 21% O2, 5% CO2 at 37 °C.
(§4) The cytotoxic efficacy of the bio-reducible derivatives was determined based on cell viability assays using alamarBlue® (Invitrogen). In short, HT29 and HCT116 were seeded in 96-well plates and allowed to attach overnight. On the following day, the plates were exposed to normoxia or anoxia and medium was replaced with pre-incubated normoxic or anoxic DMEM. Compounds were dissolved in DMSO (0.5%, Sigma-Aldrich) and final concentrations were made with pre-incubated anoxic or normoxic DMEM and added to the wells after 24 h of exposure. Cells were exposed to compounds for a total of 2 h, after which the medium was washed off and replaced with fresh medium. Cells were allowed to grow for an additional 72 h under normoxic conditions prior to measurement. Cells were incubated with alamarBlue® for 2 h during normoxic conditions, which corresponds with their metabolic function, a measure for cell viability. Fluorescence was measured using plate reader (FLUOstar Omega, BMG LABTECH, Ortenberg, Germany) using a fluorescence excitation wavelength of 540–580 nm.
(§5) GraphPad Prism (version 5.03, GraphPad Software, San Diego, CA, USA) was used for all statistical analyses. For the cytotoxic compounds, IC50 values were estimated with the curve of the log (inhibitor) vs. normalized response (Variable slope).
In general terms: Alamar Blue is a resazurin reagent that responds to reducing activity.

The next data set has as its target hCA II (Homo sapiens, UniProt P00918). Kind of data set: stopped flow CO2 hydrase assay, hCA II.
The nature of data set [3]: zebrafish embryo lethality (LC50). It is filed as in vivo. The conditions noted are these: AB, zebrafish, in vivo, zebrafish embryos from 24 hpf, end of 5 days of exposure. As for the experimental part: as §1, §2
(§6) The LC50 values for all the three prodrugs were determined using 24-hpf embryos using […] different concentrations for each compound. We used a minimum of 30 zebrafish larvae for each concentration of the compound [28, 30, 36, 42]. The 24-hpf larvae were exposed to different concentrations of the inhibitors that ranged from 20 μM to […]. A dose response curve (DRC) was calculated using the DRM (model fitting function) of the DRC R package. The control group constituted an equal number of larvae not treated with any compound and the larvae that were treated with 1% DMSO. Toxicological evaluation studies were performed in 24-well plates (Corning V R Costar V R cell culture plates). In each well, we placed 1–2 24-hpf embryos in 1 mL of embryonic medium containing a diluted inhibitor. For control groups, 1% DMSO diluted in either embryonic medium or embryonic medium with no chemical compound. A minimum of three sets of experiments were carried out for each prodrug. The mortality of the larvae was checked every 24 h until 5 days after exposure to the prodrugs.

The next data set deals with zebrafish embryos. Briefly: zebrafish embryo lethality (LC50). Format: in vivo. The conditions noted are these: 1 mM, end of 5 days of exposure. As for the experimental part: as §1, §2, §6
Data set [4] deals with HT29 cells. Briefly: clonogenic assay, HT29. It is filed as cell-based, human. The conditions noted are these: HT29, normoxia or anoxia, tested concentrations (10 to 100 μM), 30 min exposure. As for the experimental part:
as §3
(§7) Clonogenic survival HT29 and HCT116 cells were seeded with a high density for CA IX-dependent extracellular acidification. […] These cells were exposed to 23:30 h normoxic or anoxic conditions and 30 min to drugs after which cells were trypsinized and reseeded in triplicate with known cell numbers. Cells were allowed to grow for 9 (HCT116) and 14 (HT29) days to form colonies that were quantified after staining and fixation with 0.4% methylene blue in 70% ethanol. Surviving fractions were calculated and compared to control survival curves produced in the same experiment without compound treatment.

In another data set the target is hCA IX (Homo sapiens, UniProt Q16790). Briefly: stopped flow CO2 hydrase assay, hCA IX.
The subject of data set [5] is HCT116 cells. Kind of data set: clonogenic assay, HCT116. The conditions noted are these: HCT116, normoxia or anoxia, tested concentrations (10 to 100 μM), 30 min exposure. Format: cell-based, human. How it is done: as §3, §7
Data set [6] relates to zebrafish larvae. Briefly: swim pattern analysis of zebrafish larvae. Particulars: 160 µM (concentration that did not induce phenotypic defects), end of 5 days of exposure. It is filed as in vivo. As for the experimental part:
The swim pattern of the zebrafish larvae was studied after 5 days of exposure to these compounds. For the analyses of swim pattern, about 15–20 zebrafish larvae after 5 days of exposure to the compounds were placed in a 35 mm × 15 mm petri dish containing embryonic medium, and the larvae were allowed to settle in the petri dish for 1 min. The movement of the zebrafish larvae was observed under the microscope for 1 min. […] The swim patterns were compared with the control group zebrafish larvae that were not treated with any inhibitor.

In data set [7] the test system is HT29 cells. Briefly: alamarBlue cell viability assay, HT29. Particulars: for IC50: Homo sapiens, HT-29. It is filed as cell-based, human. As for the experimental part:
as §3, §4, §5

The next data set has as its target hCA I (Homo sapiens, UniProt P00915). Kind of data set: stopped flow CO2 hydrase assay, hCA I. The conditions noted are these: KI hCA I, mean from 3 different assays.

“Also recorded” adds a separate entry of the source. Like-named read-outs stand apart in the source and are kept apart here. Bounds are passed on as bounds.

Sequence of hCA I (P00915 whole entry): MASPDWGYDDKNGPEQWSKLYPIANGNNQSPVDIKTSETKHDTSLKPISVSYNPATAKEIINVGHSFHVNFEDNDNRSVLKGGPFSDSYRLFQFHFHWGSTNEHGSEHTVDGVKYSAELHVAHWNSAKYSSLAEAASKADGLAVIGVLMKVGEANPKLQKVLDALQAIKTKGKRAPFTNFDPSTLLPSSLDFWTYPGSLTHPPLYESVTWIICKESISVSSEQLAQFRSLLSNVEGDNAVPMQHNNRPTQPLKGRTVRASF
Protocol for hCA II: (§8) An Sx.18Mv-R Applied Photophysics (Oxford, UK) stopped-flow instrument was used for assaying the CA catalyzed CO2 hydration activity. […] In particular, CO2 was bubbled in distilled deionized water for 30 min so that the water was saturated (the concentration at a specific temperature is known from literature). In addition, a CO2 assay kit (from Merck, Darmstadt, Germany) was used to measure the concentration in variously diluted solutions obtained from the saturated one (which was kept at the same temperature and a constant bubbling during the experiments). […] The uncatalyzed rates were determined in the same manner and subtracted from the total observed rates. Stock solutions of inhibitor (0.1 mM) were prepared in distilled deionized water and dilutions up to 0.01 nM were done thereafter with distilled deionized water. Inhibitor and enzyme solutions were pre-incubated together for 15 min–2 h (or longer, i.e., 4–6 h) at room temperature (at 4 °C for the incubation periods longer than 15 min) prior to assay, in order to allow for the formation of the EI complex. The inhibition constants were obtained by non-linear least-squares methods using PRISM 3 and the Cheng–Prusoff equation, as reported earlier [38, 39], and represent the mean from at least three different determinations. hCA I was purchased by Merck (Darmstadt, Germany) and used without further purification, whereas all the other hCA isoforms were recombinant ones obtained in-house as reported earlier [40].
Protocol for hCA IX: as §8

For orientation: Ki means a measure of affinity in units of concentration, obtained from inhibition or displacement. A word on the LC50: it is the concentration lethal to half of the exposed cells or organisms. High values mean a less lethal substance, low ones a more lethal substance. Turning to `Cn1c(COC(=O)NCCc2ccc(S(N)(=O)=O)cc2)cnc1[N+](=O)[O-]` [Compound 1b, (1-methyl-2-nitro-1H-imidazol-5-yl) methyl (4-sulfamoylphenethyl) carbamate], the “adverse effects on observable phenotypic parameters of the larvae” value in the data set with zebrafish larvae [1] (20 μM–2 mM, 5 days post exposure) is reported as “minimal or no adverse effects”. Besides, the swim bladder development result in the data set on zebrafish larvae [1] (1000 μM, at 5 days) is given as “absence of a swim bladder”. Moreover, the phenotypic abnormalities result with zebrafish larvae [1] (zebrafish larvae, 1 mM) is reported as “no or minimal phenotypic abnormalities”. The IC50 with HCT116 cells [2] (HCT116, anoxia, read-out: IC50A) was 59.4 µM; in the data set with HCT116 cells [2] (Homo sapiens, HCT-116, HCT116, anoxia, read-out: IC50A), 59.3 µM; in the data set on HCT116 cells [2] (Homo sapiens, HCT-116, HCT116, normoxia, read-out: IC50N), 149 µM; with HT29 cells [7] (HT29, anoxia, 2 h exposure, 72 h regrowth, read-out: IC50A), 204 µM; in the data set on HT29 cells [7] (HT29, normoxia, 2 h exposure, 72 h regrowth, read-out: IC50N), > 500 µM. For the same compound, the figures for the inhibition constant Ki on hCA II, at hCA IX and at hCA I were 30.6 nM, 7.6 nM and 167 nM, respectively. Moreover, in data set [3], the median lethal concentration (LC50) is ~1.4 mM. Besides, the “mortality of the larvae” value in the data set with zebrafish embryos is listed as “did not cause any mortality; also recorded: no mortality observed”. Further, the clonogenic cell survival entry in the data set on HT29 cells [4] and in the data set with HCT116 cells [5] was “did not reduce clonogenic cell survival” in each case. In the data set on zebrafish larvae [6], the swim pattern result is given as “did not induce phonotypic abnormalities in the larvae as well as abnormal or ataxic swim movement”. Besides, the “HCR (IC50N/IC50A)” value in the data set on HT29 cells [7] (HT29, hypoxia selectivity cytotoxicity ratio) is >2.44. For the same compound, in the data set on HT29 cells [7] (HT29, normoxia, 2 h exposure, 72 h regrowth), the IC50N entry is “no detectable cytotoxicity”.

(Values after publication PMC7287649, “Hypoxia-Activated Prodrug Derivatives of Carbonic Anhydrase Inhibitors in Benzenesulfonamide Series: Synthesis and Biological Evaluation” (Molecules, 2020).)
